Laboratory results as given in patent publication US9850256B2, “Antibacterial basic biaromatic derivatives with aminoalkoxy substitution” (priority 2014, dated 2017).
In brackets after ≈: the same amount, converted by molar mass.

Tests used:
Experiment in all cases: Bacterial growth minimal inhibitory concentration (microdilution, cation-adjusted Mueller-Hinton Broth)
[1] = system: S. aureus A798; assay type: cell-based, Staphylococcus aureus; settings: Staphylococcus aureus, A798; multiply-resistant strain (methicillin- and quinolone-resistant)
Protocol: (§1) Minimal Inhibitory Concentrations (MICs; mg/L) were determined in cation-adjusted Mueller-Hinton Broth by a microdilution method following the description given in “Methods for Dilution Antimicrobial Susceptibility Tests for Bacteria that Grow Aerobically”, Approved standard, 7th ed., Clinical and Laboratory Standards Institute (CLSI) Document M7-A7, Wayne, Pa., USA (2006).
(§2) All Example compounds were tested against several Gram positive and Gram negative bacteria. […] Staphylococcus aureus A798 is a multiply-resistant strain (methicillin- and quinolone-resistant), Klebsiella pneumoniae T6474 is a multiply-resistant strain (penicillin-, cephalosporin- and in particular quinolone-resistant), while E. coli ATCC25922 and Pseudomonas aeruginosa ATCC 27853 are quinolone-sensitive strains.

[2] = system: E. coli ATCC25922; assay type: cell-based; settings: Escherichia coli, ATCC25922; quinolone-sensitive strain
Protocol: as §1, §2

[3] = system: P. aeruginosa ATCC 27853; assay type: cell-based, Pseudomonas aeruginosa; settings: Pseudomonas aeruginosa, ATCC27853; quinolone-sensitive strain
Protocol: as §1, §2

[4] = system: K. pneumoniae T6474; assay type: cell-based, Klebsiella pneumoniae; settings: Klebsiella pneumoniae, T6474; multiply-resistant strain (penicillin-, cephalosporin- and quinolone-resistant)
Protocol: as §1, §2

## NCCCOc1cccc(-c2cccc(CNCC[C@H]3CN(c4ccc5c(n4)NC(=O)CO5)C(=O)O3)c2)c1 [Example 3, 6-[(S)-5-(2-{[3′-(3-amino-propoxy)-biphenyl-3-ylmethyl]-amino}-ethyl)-2-oxo-oxazolidin-3-yl]-4H-pyrido[3,2-b][1,4]oxazin-3-one]
[1]
  MIC: 2 mg/L (≈ 3.86 µM)
[2]
  MIC: 1 mg/L (≈ 1.93 µM)
[3]
  MIC: 2 mg/L (≈ 3.86 µM)
[4]
  MIC: 2 mg/L (≈ 3.86 µM)

## CNCCOc1cccc(-c2cccc(CNCC[C@H]3CN(c4ccc5c(n4)NC(=O)CO5)C(=O)O3)c2)c1 [Example 4, 6-[(S)-5-(2-{[3′-(2-methylamino-ethoxy)-biphenyl-3-ylmethyl]-amino}-ethyl)-2-oxo-oxazolidin-3-yl]-4H-pyrido[3,2-b][1,4]oxazin-3-one]
[1]
  MIC: 2 mg/L (≈ 3.86 µM)
[2]
  MIC: 1 mg/L (≈ 1.93 µM)
[3]
  MIC: 2 mg/L (≈ 3.86 µM)
[4]
  MIC: 2 mg/L (≈ 3.86 µM)

## NCCCCOc1cccc(-c2cccc(CNCC[C@H]3CN(c4ccc5c(n4)NC(=O)CO5)C(=O)O3)c2)c1 [Example 5, 6-[(S)-5-(2-{[3′-(4-amino-butoxy)-biphenyl-3-ylmethyl]-amino}-ethyl)-2-oxo-oxazolidin-3-yl]-4H-pyrido[3,2-b][1,4]oxazin-3-one]
[1]
  MIC: 2 mg/L (≈ 3.76 µM)
[2]
  MIC: 4 mg/L (≈ 7.52 µM)
[3]
  MIC: 4 mg/L (≈ 7.52 µM)
[4]
  MIC: 4 mg/L (≈ 7.52 µM)

## NCCOc1cccc(-c2cccc(CNCC[C@H]3CN(c4ccc5c(n4)NC(=O)CO5)C(=O)O3)c2)n1 [Example 8, 6-[(S)-5-(2-{3-[6-(2-amino-ethoxy)-pyridin-2-yl]-benzylamino}-ethyl)-2-oxo-oxazolidin-3-yl]-4H-pyrido[3,2-b][1,4]oxazin-3-one]
[1]
  MIC: 0.25 mg/L (≈ 0.495 µM)
[2]
  MIC: 0.5 mg/L (≈ 0.991 µM)
[3]
  MIC: 0.25 mg/L (≈ 0.495 µM)
[4]
  MIC: 1 mg/L (≈ 1.98 µM)

## O=C1COc2ccc(N3C[C@H](CCNCc4cccc(-c5cccc(OCCN6CCCC6)n5)c4)OC3=O)nc2N1 [Example 9, 6-[(S)-2-oxo-5-(2-{3-[6-(2-pyrrolidin-1-yl-ethoxy)-pyridin-2-yl]-benzylamino}-ethyl)-oxazolidin-3-yl]-4H-pyrido[3,2-b][1,4]oxazin-3-one]
[1]
  MIC: 0.125 mg/L (≈ 0.224 µM)
[2]
  MIC: 2 mg/L (≈ 3.58 µM)
[3]
  MIC: 2 mg/L (≈ 3.58 µM)
[4]
  MIC: 1 mg/L (≈ 1.79 µM)

## CN(C)CCOc1cnnc(-c2cccc(CNCC[C@H]3CN(c4ccc5c(n4)NC(=O)CO5)C(=O)O3)c2)c1 [Example 10, 6-[(S)-5-(2-{3-[5-(2-dimethylamino-ethoxy)-pyridazin-3-yl]-benzylamino}-ethyl)-2-oxo-oxazolidin-3-yl]-4H-pyrido[3,2-b][1,4]oxazin-3-one]
[1]
  MIC: 8 mg/L (≈ 15 µM)
[2]
  MIC: 2 mg/L (≈ 3.75 µM)
[3]
  MIC: 4 mg/L (≈ 7.5 µM)
[4]
  MIC: 4 mg/L (≈ 7.5 µM)

## NCCOc1cncc(-c2cccc(CNCC[C@H]3CN(c4ccc5c(n4)NC(=O)CO5)C(=O)O3)c2)c1 [Example 11, 6-[(S)-5-(2-{3-[5-(2-amino-ethoxy)-pyridin-3-yl]-benzylamino}-ethyl)-2-oxo-oxazolidin-3-yl]-4H-pyrido[3,2-b][1,4]oxazin-3-one]
[1]
  MIC: 2 mg/L (≈ 3.96 µM)
[2]
  MIC: 2 mg/L (≈ 3.96 µM)
[3]
  MIC: 1 mg/L (≈ 1.98 µM)
[4]
  MIC: 4 mg/L (≈ 7.93 µM)

## O=C1COc2ccc(N3C[C@H](CCNCc4cccc(-c5cccc(OCCN6CCCCC6)n5)c4)OC3=O)nc2N1 [Example 12, 6-[(S)-2-oxo-5-(2-{3-[6-(2-piperidin-1-yl-ethoxy)-pyridin-2-yl]-benzylamino}-ethyl)-oxazolidin-3-yl]-4H-pyrido[3,2-b][1,4]oxazin-3-one]
[1]
  MIC: 0.063 mg/L (≈ 0.11 µM)
[2]
  MIC: 1 mg/L (≈ 1.75 µM)
[3]
  MIC: 2 mg/L (≈ 3.49 µM)
[4]
  MIC: 2 mg/L (≈ 3.49 µM)

## O=C1COc2ccc(N3C[C@H](CCNCc4cccc(-c5cccc(OCCN6CCCCC6)c5)c4)OC3=O)nc2N1 [Example 13, 6-[(S)-2-oxo-5-(2-{[3′-(2-piperidin-1-yl-ethoxy)-biphenyl-3-ylmethyl]-amino}-ethyl)-oxazolidin-3-yl]-4H-pyrido[3,2-b][1,4]oxazin-3-one]
[1]
  MIC: 0.5 mg/L (≈ 0.875 µM)
[2]
  MIC: 2 mg/L (≈ 3.5 µM)
[3]
  MIC: 8 mg/L (≈ 14 µM)
[4]
  MIC: 2 mg/L (≈ 3.5 µM)

## NC1(COc2cccc(-c3cccc(CNCC[C@H]4CN(c5ccc6c(n5)NC(=O)CO6)C(=O)O4)c3)c2)CC1 [Example 14, 6-[(S)-5-(2-{[3′-(1-amino-cyclopropylmethoxy)-biphenyl-3-ylmethyl]-amino}-ethyl)-2-oxo-oxazolidin-3-yl]-4H-pyrido[3,2-b][1,4]oxazin-3-one]
[1]
  MIC: 1 mg/L (≈ 1.89 µM)
[2]
  MIC: 2 mg/L (≈ 3.78 µM)
[3]
  MIC: 8 mg/L (≈ 15.1 µM)
[4]
  MIC: 2 mg/L (≈ 3.78 µM)

## NCCOc1cncc(-c2cccc(CNCC[C@H]3CN(c4ccc5c(n4)NC(=O)CO5)C(=O)O3)c2)n1 [Example 15, 6-[(S)-5-(2-{3-[6-(2-amino-ethoxy)-pyrazin-2-yl]-benzylamino}-ethyl)-2-oxo-oxazolidin-3-yl]-4H-pyrido[3,2-b][1,4]oxazin-3-one]
[1]
  MIC: 0.5 mg/L (≈ 0.989 µM)
[2]
  MIC: 1 mg/L (≈ 1.98 µM)
[3]
  MIC: 1 mg/L (≈ 1.98 µM)
[4]
  MIC: 2 mg/L (≈ 3.96 µM)

## NCCOc1cccc(-c2ccnc(CNCC[C@H]3CN(c4ccc5c(n4)NC(=O)CO5)C(=O)O3)c2)n1.O=CO [Example 16, 6-[(S)-5-(2-{[6-(2-amino-ethoxy)-[2,4′]bipyridinyl-2′-ylmethyl]-amino}-ethyl)-2-oxo-oxazolidin-3-yl]-4H-pyrido[3,2-b][1,4]oxazin-3-one formate]
[1]
  MIC: 0.5 mg/L
[2]
  MIC: 2 mg/L
[3]
  MIC: 0.5 mg/L
[4]
  MIC: 4 mg/L

## C[C@@H](N)COc1cccc(-c2cccc(CNCC[C@H]3CN(c4ccc5c(n4)NC(=O)CO5)C(=O)O3)c2)n1 [Example 17, 6-[(S)-5-(2-{3-[6-((R)-2-amino-propoxy)-pyridin-2-yl]-benzylamino}-ethyl)-2-oxo-oxazolidin-3-yl]-4H-pyrido[3,2-b][1,4]oxazin-3-one]
[1]
  MIC: 0.5 mg/L (≈ 0.964 µM)
[2]
  MIC: 1 mg/L (≈ 1.93 µM)
[3]
  MIC: 1 mg/L (≈ 1.93 µM)
[4]
  MIC: 2 mg/L (≈ 3.86 µM)

## C[C@H](N)COc1cccc(-c2cccc(CNCC[C@H]3CN(c4ccc5c(n4)NC(=O)CO5)C(=O)O3)c2)n1 [Example 18, 6-[(S)-5-(2-{3-[6-((S)-2-amino-propoxy)-pyridin-2-yl]-benzylamino}-ethyl)-2-oxo-oxazolidin-3-yl]-4H-pyrido[3,2-b][1,4]oxazin-3-one]
[1]
  MIC: 0.5 mg/L (≈ 0.964 µM)
[2]
  MIC: 1 mg/L (≈ 1.93 µM)
[3]
  MIC: 1 mg/L (≈ 1.93 µM)
[4]
  MIC: 2 mg/L (≈ 3.86 µM)

## NCCOc1cc(-c2cccc(CNCC[C@H]3CN(c4ccc5c(n4)NC(=O)CO5)C(=O)O3)c2)ccn1.O=CO [Example 19, 6-[(S)-5-(2-{3-[2-(2-amino-ethoxy)-pyridin-4-yl]-benzylamino}-ethyl)-2-oxo-oxazolidin-3-yl]-4H-pyrido[3,2-b][1,4]oxazin-3-one formate]
[1]
  MIC: 8 mg/L
[2]
  MIC: 1 mg/L
[3]
  MIC: 1 mg/L
[4]
  MIC: 4 mg/L

## NCCCCCOc1cccc(-c2cccc(CNCC[C@H]3CN(c4ccc5c(n4)NC(=O)CO5)C(=O)O3)c2)n1 [Example 20, 6-[(S)-5-(2-{3-[6-(5-amino-pentyloxy)-pyridin-2-yl]-benzylamino}-ethyl)-2-oxo-oxazolidin-3-yl]-4H-pyrido[3,2-b][1,4]oxazin-3-one]
[1]
  MIC: 0.5 mg/L (≈ 0.915 µM)
[2]
  MIC: 2 mg/L (≈ 3.66 µM)
[3]
  MIC: 2 mg/L (≈ 3.66 µM)
[4]
  MIC: 8 mg/L (≈ 14.6 µM)

## COc1cc(OCCN)cc(-c2cccc(CNCC[C@H]3CN(c4ccc5c(n4)NC(=O)CO5)C(=O)O3)c2)c1 [Example 21, 6-[(S)-5-(2-{[3′-(2-amino-ethoxy)-5′-methoxy-biphenyl-3-ylmethyl]-amino}-ethyl)-2-oxo-oxazolidin-3-yl]-4H-pyrido[3,2-b][1,4]oxazin-3-one]
[1]
  MIC: 0.5 mg/L (≈ 0.937 µM)
[2]
  MIC: 1 mg/L (≈ 1.87 µM)
[3]
  MIC: 1 mg/L (≈ 1.87 µM)
[4]
  MIC: 2 mg/L (≈ 3.75 µM)

## NCCOc1cccc(-c2cccc(CNCC[C@@H]3CN(c4ccc5c(c4)NC(=O)CS5)C(=O)O3)c2)n1 [Example 22, 6-[(R)-5-(2-{3-[6-(2-amino-ethoxy)-pyridin-2-yl]-benzylamino}-ethyl)-2-oxo-oxazolidin-3-yl]-4H-benzo[1,4]thiazin-3-one]
[1]
  MIC: 0.5 mg/L (≈ 0.962 µM)
[2]
  MIC: 0.5 mg/L (≈ 0.962 µM)
[3]
  MIC: 0.5 mg/L (≈ 0.962 µM)
[4]
  MIC: 2 mg/L (≈ 3.85 µM)

## O=C1COc2ccc(N3C[C@H](CCNCc4cccc(-c5cccc(OCCN6CCOCC6)n5)c4)OC3=O)nc2N1 [Example 23, 6-[(S)-5-(2-{3-[6-(2-morpholin-4-yl-ethoxy)-pyridin-2-yl]-benzylamino}-ethyl)-2-oxo-oxazolidin-3-yl]-4H-pyrido[3,2-b][1,4]oxazin-3-one]
[1]
  MIC: 0.125 mg/L (≈ 0.218 µM)
[2]
  MIC: 4 mg/L (≈ 6.96 µM)
[3]
  MIC: 8 mg/L (≈ 13.9 µM)
[4]
  MIC: 8 mg/L (≈ 13.9 µM)

## O=C1COc2ccc(N3C[C@H](CCNCc4cccc(-c5cccc(OC[C@@H]6CCN6)c5)c4)OC3=O)nc2N1 [Example $101, 6-[(S)-5-(2-{[3′-((S)-1-azetidin-2-ylmethoxy)-biphenyl-3-ylmethyl]-amino}-ethyl)-2-oxo-oxazolidin-3-yl]-4H-pyrido[3,2-b][1,4]oxazin-3-one]
[1]
  MIC: 2 mg/L (≈ 3.78 µM)
[2]
  MIC: 1 mg/L (≈ 1.89 µM)
[3]
  MIC: 1 mg/L (≈ 1.89 µM)
[4]
  MIC: 2 mg/L (≈ 3.78 µM)

## O=C1COc2ccc(N3C[C@H](CCNCc4cccc(-c5cccc(OC[C@@H]6CCCN6)c5)c4)OC3=O)nc2N1 [Example $102, 6-((S)-2-oxo-5-(2-(((3′-(((S)-pyrrolidin-2-yl)methoxy)-[1,1′-biphenyl]-3-yl)methyl)amino)ethyl)oxazolidin-3-yl)-2H-pyrido[3,2-b][1,4]oxazin-3(4H)-one]
[1]
  MIC: 2 mg/L (≈ 3.68 µM)
[2]
  MIC: 1 mg/L (≈ 1.84 µM)
[3]
  MIC: 2 mg/L (≈ 3.68 µM)
[4]
  MIC: 2 mg/L (≈ 3.68 µM)

## CN1CC[C@H]1COc1cccc(-c2cccc(CNCC[C@H]3CN(c4ccc5c(n4)NC(=O)CO5)C(=O)O3)c2)c1 [Example $104, 6-[(S)-5-(2-{[3′-((S)-1-methyl-azetidin-2-ylmethoxy)-biphenyl-3-ylmethyl]-amino}-ethyl)-2-oxo-oxazolidin-3-yl]-4H-pyrido[3,2-b][1,4]oxazin-3-one]
[1]
  MIC: 1 mg/L (≈ 1.84 µM)
[2]
  MIC: 2 mg/L (≈ 3.68 µM)
[3]
  MIC: 4 mg/L (≈ 7.36 µM)
[4]
  MIC: 4 mg/L (≈ 7.36 µM)
